One test concerns AGS cells (K-Ras G12D). Nature of the test: 2D cell growth inhibition assay, AGS. The settings on record: Homo sapiens, 144 h, 6 days, absolute IC50. Format: cell-based.
The test system of test [1] is AsPC-1 cells (K-Ras G12D). Nature of the test: 2D cell growth inhibition assay, AsPC-1. Format: cell-based. The settings on record: Homo sapiens, ASPC1, 144 h, AsPC-1, K-Ras G12D, 6 days, absolute IC50.
Another test concerns SW620 cells (K-Ras G12V). Description: 2D cell growth inhibition assay, SW620. Format: cell-based. The conditions noted are these: Homo sapiens, SW-620, 144 h, 6 days, absolute IC50.
The subject of test [2] is p-ERK in SW620 cells (K-Ras G12V). Nature of the test: Phospho-ERK1/2(THR202/TYR204) HTRF assay, SW620. Format: cell-based. The settings on record: Homo sapiens, SW-620, 2 h, 2 hours incubation. (In general: Time-resolved FRET reads energy transfer from a long-lived donor to a nearby acceptor.)
In test [3] the test system is p-ERK in AGS cells (K-Ras G12D). Nature of the test: Phospho-ERK1/2(THR202/TYR204) HTRF assay, AGS. Format: cell-based. The conditions noted are these: Homo sapiens, 2 h, 2 hours incubation.
Experimental: p-ERK (MAPK pathway) inhibition activity of each of compounds in a variety of K-Ras mutant and K-Ras WT cell lines indicated in Table 23 was evaluated.
Each of cells in culture medium was seeded in 96-well plates at density indicated in Table 23 and then put in a cell incubator to incubate overnight. The next day, the culture medium was removed and the compound diluted in assay medium was added in each well. […] 10 μL of cell lysates from the 96-well plates were transferred to a 384-well plate (Greiner) containing 2.5 μL/well HTRF® pre-mixed antibodies (Cisbio 64AERPEH). The plate was incubated 4 hours at 25° C. and then read HTRF signals on Tecan Spark multimode microplate reader. The data were analyzed using a 4-parameter logistic model to calculate IC50 values.
The target in test [4] is T1, K-Ras G12V (Homo sapiens, UniProt P01116, G12V). Description: SOS1 catalyzed nucleotide exchange assay (GDP form K-Ras), K-Ras G12V. The settings on record: read-out: K-Ras G12V GDP Biochemical Activity (IC50).
T1 sequence (P01116 1-169 isoform P01116-2 G12V): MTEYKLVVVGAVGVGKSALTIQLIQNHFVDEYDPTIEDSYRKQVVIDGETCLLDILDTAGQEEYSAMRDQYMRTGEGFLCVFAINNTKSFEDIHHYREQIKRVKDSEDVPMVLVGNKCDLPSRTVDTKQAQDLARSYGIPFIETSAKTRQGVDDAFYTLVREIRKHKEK
Test [5] concerns the target T1, K-Ras G12V. Nature of the test: biochemical.

Usually IC50 stands for the concentration that inhibits the measured activity by half.

Turning to `C#Cc1c(F)ccc2cc(O)cc(-c3ncc4c(N5CCCO[C@H]6C[C@H]65)nc(OC[C@@]56CCCN5C[C@H](F)C6)nc4c3F)c12` (single isomer, unassigned) [Compound 7A], the results for the IC50 (in the test on AGS cells (K-Ras G12D); in test [1]; in the test on SW620 cells (K-Ras G12V)) were 175 nM, 1510 nM and 846 nM, respectively.

For `C#Cc1c(F)ccc2cc(O)cc(-c3ncc4c(N5CCCOCC56CC6)nc(OC[C@@]56CCCN5C[C@H](F)C6)nc4c3F)c12` [Compound 50, 5-ethynyl-6-fluoro-4-(8-fluoro-2-(((2R,7aS)-2-fluorotetrahydro-1H-pyrrolizin-7a(5H)-yl)methoxy)-4-(8-oxa-4-azaspiro[2.6]nonan-4-yl)pyrido[4,3-d]pyrimidin-7-yl)naphthalen-2-ol trifluoroacetic acid], in test [2], 121 nM corresponded to half-maximal inhibition (IC50).

For `Oc1cc(-c2ncc3c(N4CCCOCC4)nc(OC[C@@]45CCCN4C[C@H](F)C5)nc3c2F)c2ccccc2c1` [Compound 118, 4-(8-fluoro-2-(((2R,7aS)-2-fluorotetrahydro-1H-pyrrolizin-7a(5H)-yl)methoxy)-4-(1,4-oxazepan-4-yl)pyrido[4,3-d]pyrimidin-7-yl)naphthalen-2-ol], the IC50 was 113 nM in test [3]; 110 nM in test [2]; 184 nM in the test with AGS cells (K-Ras G12D); 1420 nM in test [1]; 343 nM in the test on SW620 cells (K-Ras G12V).

As to `C#Cc1c(F)ccc2cc(O)cc(-c3ncc4c(N5[C@H]6COC[C@H](C)[C@@H]5C6)nc(OC[C@@]56CCCN5C[C@H](F)C6)nc4c3F)c12` [Compound 110, 5-ethynyl-6-fluoro-4-(8-fluoro-2-(((2R,7aS)-2-fluorotetrahydro-1H-pyrrolizin-7a(5H)-yl)methoxy)-4-((1R,5R,6S)-5-methyl-3-oxa-7-azabicyclo[4.1.1]octan-7-yl)pyrido [4,3-d]pyrimidin-7-yl)naphthalen-2-ol], the IC50 at K-Ras G12V [4] was 6.63 nM; in test [3] it was 44.3 nM; in test [2], 62.2 nM; in the test on SW620 cells (K-Ras G12V) it was 81 nM; on K-Ras G12V [5], greater than 1000 nM.

Regarding `C#Cc1c(F)ccc2cccc(-c3ncc4c(N5CCCOC6CC65)nc(OC[C@@]56CCCN5C[C@H](F)C6)nc4c3F)c12` (stereo partly drawn) [Compound 115, 6-(7-(8-ethynyl-7-fluoronaphthalen-1-yl)-8-fluoro-2-(((2R,7aS)-2-fluorotetrahydro-1H-pyrrolizin-7a(5H)-yl)methoxy)pyrido [4,3-d]pyrimidin-4-yl)-2-oxa-6-azabicyclo [5.1.0]octane], the IC50 in test [3] was found to be 46.5 nM; in test [2] it was 27.9 nM; with AGS cells (K-Ras G12D), 133 nM; in test [1] it was 237 nM; in the test with SW620 cells (K-Ras G12V) it was 163 nM.

In the case of `C#Cc1c(F)ccc2cc(O)cc(-c3ncc4c(N5CCCOCC5)nc(OCC56CCCN5CC(F)(F)C6)nc4c3F)c12` (centres unmarked) [Compound 9, 4-(2-((2,2-difluorotetrahydro-1H-pyrrolizin-7a(5H)-yl)methoxy)-8-fluoro-4-(1,4-oxazepan-4-yl)pyrido[4,3-d]pyrimidin-7-yl)-5-ethynyl-6-fluoronaphthalen-2-ol], the IC50 in test [3] was found to be 66.2 nM; in test [2] it was 15.4 nM; with AGS cells (K-Ras G12D), 186 nM; in test [1], 586 nM; in the test with SW620 cells (K-Ras G12V), 171 nM.

`C#Cc1c(F)ccc2cc(O)cc(-c3ncc4c(N5CCOCC6(CC6)C5)nc(OC[C@@]56CCCN5C[C@H](F)C6)nc4c3F)c12` [Compound 103, 5-ethynyl-6-fluoro-4-(8-fluoro-2-(((2R,7aS)-2-fluorotetrahydro-1H-pyrrolizin-7a(5H)-yl)methoxy)-4-(5-oxa-8-azaspiro[2.6]nonan-8-yl)pyrido[4,3-d]pyrimidin-7-yl) naphthalen-2-ol]: the IC50 in test [2] turned out to be 187 nM; with SW620 cells (K-Ras G12V), 109 nM.

Turning to `C#Cc1c(F)ccc2cc(O)cc(-c3ncc4c(N5CC(OC)COCC5C)nc(OC[C@@]56CCCN5C[C@H](F)C6)nc4c3F)c12` (stereo partly drawn) [Compound 106, 5-ethynyl-6-fluoro-4-(8-fluoro-2-(((2R,7aS)-2-fluorotetrahydro-1H-pyrrolizin-7a(5H)-yl)methoxy)-4-(6-methoxy-3-methyl-1,4-oxazepan-4-yl)pyrido[4,3-d]pyrimidin-7-yl)naphthalen-2-ol], the IC50 in test [3] turned out to be 39.4 nM; in test [2], 21.5 nM; in the test on AGS cells (K-Ras G12D), 98.1 nM; in test [1] it was 681 nM; in the test with SW620 cells (K-Ras G12V) it was 66.4 nM.

`C#Cc1cccc2cc(O)cc(-c3ncc4c(N5CCCOCC5)nc(OC[C@@]56CCCN5C[C@H](F)C6)nc4c3F)c12` [Compound 82]: the IC50 in test [3] amounted to 2.93 nM; in test [2], 13.8 nM; in the test on AGS cells (K-Ras G12D), 15.5 nM; in test [1], 226 nM; in the test on SW620 cells (K-Ras G12V), 116 nM.

As to `C#Cc1c(F)ccc2cc(O)cc(-c3ncc4c(N5CCOCC(=C)C5)nc(OC[C@@]56CCCN5C[C@H](F)C6)nc4c3F)c12` [Compound 24, 5-ethynyl-6-fluoro-4-(8-fluoro-2-(((2R,7aS)-2-fluorotetrahydro-1H-pyrrolizin-7a(5H)-yl)methoxy)-4-(6-methylene-1,4-oxazepan-4-yl)pyrido[4,3-d]pyrimidin-7-yl)naphthalen-2-ol], the IC50 in test [3] was found to be 23.1 nM; in test [2] it was 4.39 nM; with AGS cells (K-Ras G12D), 42.4 nM; in test [1] it was 381 nM; with SW620 cells (K-Ras G12V), 15.3 nM.

Regarding `C#Cc1c(F)ccc2cc(O)cc(-c3ncc4c(N5CCOCC(=O)C5)nc(OC[C@@]56CCCN5C[C@H](F)C6)nc4c3F)c12` [Compound 30, 4-(7-(8-ethynyl-7-fluoro-3-hydroxynaphthalen-1-yl)-8-fluoro-2-(((2R,7aS)-2-fluorotetrahydro-1H-pyrrolizin-7a(5H)-yl)methoxy)pyrido[4,3-d]pyrimidin-4-yl)-1,4-oxazepan-6-one trifluoroacetic acid], the IC50 in test [3] was determined as 2.04 nM; in test [2] it was 3.97 nM.

As for `C#Cc1c(F)ccc2cc(O)cc(-c3ncc4c(N5CCOCCC56CC6)nc(OC[C@@]56CCCN5C[C@H](F)C6)nc4c3F)c12` [Compound 43, 5-ethynyl-6-fluoro-4-(8-fluoro-2-(((2R,7aS)-2-fluorotetrahydro-1H-pyrrolizin-7a(5H)-yl)methoxy)-4-(7-oxa-4-azaspiro[2.6]nonan-4-yl)pyrido[4,3-d]pyrimidin-7-yl)naphthalen-2-ol trifluoroacetic acid], the IC50 stood at 101 nM in test [3]; 21.8 nM in test [2]; 248 nM in the test with AGS cells (K-Ras G12D); 1850 nM in test [1]; 76.3 nM in the test with SW620 cells (K-Ras G12V).

In the case of `C#Cc1c(F)c(F)cc2cc(O)cc(-c3ncc4c(N5CCCOCC5)nc(OC[C@@]56CCCN5C[C@H](F)C6)nc4c3F)c12` [Compound 29], the IC50 in test [3] came out at 3.3 nM; in test [2] it was 7.74 nM; in the test with AGS cells (K-Ras G12D), 8.22 nM; in test [1], 53.6 nM; with SW620 cells (K-Ras G12V), 4.62 nM.

`C#Cc1c(F)ccc2cc(O)cc(-c3ncc4c(N5CCCOCC5)nc(OC[C@H]5CCCN5C)nc4c3F)c12` [Compound 2, (R)-5-ethynyl-6-fluoro-4-(8-fluoro-2-((1-methylpyrrolidin-2-yl)methoxy)-4-(1,4-oxazepan-4-yl)pyrido[4,3-d]pyrimidin-7-yl)naphthalen-2-ol]: the IC50 at K-Ras G12V [4] was found to be 4.99 nM; with AGS cells (K-Ras G12D) it was 178 nM; in test [1], 293 nM; in the test with SW620 cells (K-Ras G12V), 182 nM; against K-Ras G12V [5], 207 nM.

Regarding `C#Cc1c(F)ccc2cc(O)cc(-c3ncc4c(N5CCOCC(COC)C5)nc(OC[C@@]56CCCN5C[C@H](F)C6)nc4c3F)c12` (some centres unmarked) [Compound 87], the IC50 came out at 1.5 nM in test [3]; 5.98 nM in test [2]; 3.41 nM with AGS cells (K-Ras G12D); 32.8 nM in test [1]; 27.2 nM in the test with SW620 cells (K-Ras G12V).

In test [2], `C#Cc1c(F)ccc2cc(O)cc(-c3ncc4c(N5CC6COCC5C6)nc(OC[C@@]56CCCN5C[C@H](F)C6)nc4c3F)c12` (stereo partly drawn) [Compound 94, 4-(4-(3-oxa-6-azabicyclo[3.2.1]octan-6-yl)-8-fluoro-2-(((2R,7aS)-2-fluorotetrahydro-1H-pyrrolizin-7a(5H)-yl)methoxy)pyrido [4,3-d]pyrimidin-7-yl)-5-ethynyl-6-fluoro naphthalen-2-ol] registered an IC50 of 275 nM.

Take `C#Cc1c(F)ccc2c(F)c(O)cc(-c3ncc4c(N5CCCOCC5)nc(OC[C@@]56CCCN5C[C@H](F)C6)nc4c3F)c12` [Compound 107, 5-ethynyl-1,6-difluoro-4-(8-fluoro-2-(((2R,7aS)-2-fluorotetrahydro-1H-pyrrolizin-7a(5H)-yl)methoxy)-4-(1,4-oxazepan-4-yl)pyrido[4,3-d]pyrimidin-7-yl)naphthalen-2-ol]: the IC50 in test [3] came out at 66.1 nM; in test [2], 40.2 nM; in the test with AGS cells (K-Ras G12D), 504 nM; in test [1] it was 885 nM; in the test with SW620 cells (K-Ras G12V), 185 nM.

As for `C#Cc1c(F)ccc2cc(O)cc(-c3ncc4c(N5CCOCC(C)(C)C5)nc(OC[C@@]56CCCN5C[C@H](F)C6)nc4c3F)c12` [Compound 102, 4-(4-(6,6-dimethyl-1,4-oxazepan-4-yl)-8-fluoro-2-(((2R,7aS)-2-fluorotetrahydro-1H-pyrrolizin-7a(5H)-yl)methoxy)pyrido[4,3-d]pyrimidin-7-yl)-5-ethynyl-6-fluoro-naphthalen-2-ol], the IC50 was 192 nM in test [3] and 47.1 nM in test [2].
